Test results reported in the NIST ThermoML archive (doi:10.1016/j.jct.2006.06.008).

Experiment: xn = mol fraction of the nth substance listed
Conditions: 101 kPa, Liquid

C1CCCC1 [cyclopentane] + CCCCO
Conditions	mass density, 293.15 K [kg/m3]	mass density, 298.15 K [kg/m3]	mass density, 303.15 K [kg/m3]	speed of sound, 293.15 K [m/s]	speed of sound, 298.15 K [m/s]	speed of sound, 303.15 K [m/s]	viscosity, 293.15 K [mPa·s]	viscosity, 298.15 K [mPa·s]	viscosity, 303.15 K [mPa·s]
x1 = 0.0446	–	802.7	798.9	–	1236	1218	–	2.388	2.108
x1 = 0.046	806.62	–	–	1252	–	–	2.714	–	–
x1 = 0.0914	803.7	–	–	1248	–	–	2.541	–	–
x1 = 0.0995	–	798.99	795.01	–	1229	1211	–	2.168	1.92
x1 = 0.1924	796.71	792.62	788.49	1239	1220	1201	2.095	1.855	1.651
x1 = 0.294	789.84	–	–	1230	–	–	1.683	–	–
x1 = 0.312	–	784.43	780.13	–	1209	1189	–	1.499	1.349
x1 = 0.3875	–	779.26	774.85	–	1203	1182	–	1.233	1.108
x1 = 0.398	782.75	–	–	1223	–	–	1.358	–	–
x1 = 0.5104	–	770.8	766.2	–	1194	1172	–	0.945	0.865
x1 = 0.5211	774.4	–	–	1215	–	–	1.014	–	–
x1 = 0.6157	–	763.63	758.89	–	1189	1166	–	0.748	0.689
x1 = 0.6208	767.72	–	–	1211	–	–	0.807	–	–
x1 = 0.7182	761.29	–	–	1209	–	–	0.654	–	–
x1 = 0.7372	–	755.6	750.73	–	1186	1162	–	0.588	0.547
x1 = 0.8124	755.51	–	–	1210	–	–	0.555	–	–
x1 = 0.8361	–	749.32	744.36	–	1187	1163	–	0.498	0.472
x1 = 0.9032	–	745.24	740.23	–	1191	1166	–	0.457	0.431
x1 = 0.9141	749.28	–	–	1216	–	–	0.48	–	–
x1 = 0.9502	–	742.52	737.48	–	1195	1170	–	0.432	0.409
x1 = 0.9551	746.78	–	–	1220	–	–	0.456	–	–
x1 = 1	744.52	739.55	734.54	1232	1206	1180	0.439	0.416	0.394
